Assays:
Format in all cases: in vivo, BALB/C mice
[1] = tested on: peripheral blood mononuclear cells (PBMC); assay: PBMC gene expression (qPCR), 6 hours post-treatment
Method: Hydrogels were administered as suspensions in PTP buffer. […] Tumors were excised, weighed and snap frozen. […] For PBMC isolations, approximately 600 μl of whole blood was collected via cardiac puncture. The collected whole blood from each individual mouse was diluted with a 1:1 ratio of pre-warmed PBS supplemented with 2% Fetal Bovine Serum (FBS). Then an equal volume of Histopaque-1083 was added to a new sterile 15 mL conical tube, where the diluted whole blood was layered over the Histopaque-1083. The mixture was then centrifuged at 400 g for 30 minutes. The top plasma layer was discarded, and the white translucent interlayer (mononuclear cells) was carefully transferred to a new sterile centrifuge tube. The mononuclear cells were then washed with PBS supplemented with 2% FBS and then were spun down at 250 g for 10 minutes. […] RNA concentrations were measured using a NanoDrop (ThermoFisher) and then adjusted to […] with RNase-free water. RNA quality was assessed using a NanoDrop (ThermoFisher). […] 200 ng of cDNA was used for quantitative PCR using the RT^2 SYBR Green ROX qPCR Master mix (2X) kit (QIAGEN) following manufacturer's recommendations. […] For each gene, 3 technical replicates were analyzed per biological replicate. Undetermined technical replicate CT values were recorded as zero ΔCT values. 4-5 biological replicates were assessed in total.

[2] = tested on: CD8+ T cells of CD3+ T cells; assay: Flow cytometric profiling of tumor draining lymph nodes; settings: tumor draining lymph node, 7 days after randomization
Method: (§1) Hydrogels were administered as suspension in PTP buffer. Some cohorts were further treated with 20 μg human IL-2 (Peprotech, Rocky Hill, N.J.), intraperitoneally (I.P.), twice a day for 5 days. Mice were sacrificed 7 days after randomization (DO). Following sacrifice, tumor draining lymph nodes were isolated from both flanks and were dissociated mechanically to generate a single cell suspension at a cell concentration of 1×10^6 cells per sample. Cell suspensions were centrifuged at 300 g for 5 minutes. Supernatants were discarded and cells were resuspended in FACS buffer with 1 μg/ml Fc-Block and incubated at 4° C. for 10 minutes in the dark. Surface marker antibody mixtures (antibody concentration: 10 μg/mL) in FACS buffer were added to each sample and samples were incubated in the dark at 4° C. for 30 minutes. Cells were centrifuged at 300 g for 5 minutes and supernatants were discarded. Cells were washed and then resuspended with FACS buffer before cytometer collection.
(§2) After collection, FACS data was analyzed using FlowJo Version 10.6.1. Compensation was digitally adjusted using single antibody-stained beads. Samples with less than 90% viability, as determined by LiveDead cell staining, were excluded from the analysis. Cells were defined using the following gating strategy: • 1) Ly-6C^+ antigen presenting cells: FSC-H/FSC-A Singlets/LiveDead^−/CD45^+/CD3^−/CD335^−/Ly-6C^+ • 2) Ly-6C^+ MHCII^+ antigen presenting cells: FSC-H/FSC-A Singlets/LiveDead^−/CD45^+/CD3^−/CD335^−/Ly-6C^+/IA/IE (MHCII)^+ • 3) CD8^+ T cells: FSC-H/FSC-A Singlets/LiveDead^−/CD45^+/CD3^+/CD8 single positive 4) Ly-6C^+ CD8^+ T cells: FSC-H/FSC-A Singlets/LiveDead^−/CD45^+/CD3^+/CD8 single positive/Ly-6C^+

[3] = tested on: Ly-6C+ T cells of CD8+ T cells; assay: as above; settings: tumor draining lymph node, 7 days after randomization
Method: as §1, §2

CCOCc1nc2c(N)nc3ccccc3c2n1CC(C)(C)O [Compound 4, Resiquimod]
Il1a Mean (2^ΔΔCT) [1]: 0.41 | Frequency of CD8+ T cells of CD3+ T cells, Mean ([2]; injected right flank): 29.23% | Frequency of CD8+ T cells of CD3+ T cells, Mean ([2]; uninjected left flank): 29% | Frequency of Ly-6C+ T cells of CD8+ T cells, Mean ([3]; injected right flank): 53.7% | Frequency of Ly-6C+ T cells of CD8+ T cells, Mean ([3]; uninjected left flank): 48%

Source: US20220062273A1, “CONJUGATES OF PATTERN RECOGNITION RECEPTOR AGONISTS” (Ascendis Pharma Oncology Division A/S, priority 2019, published 2022)
